From paper PMC4534193, “Binding of the Lactococcal Drug Dependent Transcriptional Regulator LmrR to Its Ligands and Responsive Promoter Regions” (PLoS ONE, 2015)

Biological target: T1, LmrR (Lactococcus cremoris, UniProt A2RI36)
T1 construct: gene llmg_0323; LmrR homodimer; untagged protein for the crystal (residues 1–5, 70–75 and 109–116 not modelled)
T1 sequence (A2RI36 1-116): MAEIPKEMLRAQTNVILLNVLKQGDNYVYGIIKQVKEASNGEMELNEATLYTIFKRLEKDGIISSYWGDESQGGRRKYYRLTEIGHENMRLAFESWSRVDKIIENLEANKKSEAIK
Test: co-crystal structure ([…] Å) and riboflavin fluorescence quenching titration
Type: binding

Q: For Cc1cc2nc3c(=O)[nH]c(=O)nc-3n(C[C@H](O)[C@H](O)[C@H](O)CO)c2cc1C [RBF, riboflavin], which Kd is on record?
A: Its Kd is 260 ± 80 nM.
